Experimental data as given in ChEMBL document CHEMBL5543126, “Combinatorial Ubiquitination REal-time PROteolysis (CURE-PROs): A Modular Platform for Generating Reversible, Self-Assembling Bifunctional Targeted Degraders” (J Med Chem, 2024).
Each block holds one compound with its values, some of them ahead of it. Calls of active or inactive are those of the source. The calls are words filed in the database; no cut-off is given here.

How the values were obtained:
Type in all cases: cell-based
[1] = target: T1, von Hippel-Lindau disease tumor suppressor/Bromodomain-containing protein 4 (Homo sapiens, UniProt O60885+P40337); test: (§1) PROTAC activity at VHL/BRD4 in HEK293 cells assessed as induction of BRD4 degradation by measuring maximal level of degradation at 0.3 uM measured every 15 mins for 24 hrs in presence of VHL based ligand (2S,4R)-1-((S)-2-(2,3-dihydroxybenzamido)-3,3-dimethylbutanoyl)-4-hydroxy-N-(4-(4-methylthiazol-5-yl)benzyl)pyrrolidine-2-carboxamide by HiBiT based Combinatorial Ubiquitination Real-time PROteolysis analysis
T1 sequence (P40337 whole entry, looked up, other chains not shown): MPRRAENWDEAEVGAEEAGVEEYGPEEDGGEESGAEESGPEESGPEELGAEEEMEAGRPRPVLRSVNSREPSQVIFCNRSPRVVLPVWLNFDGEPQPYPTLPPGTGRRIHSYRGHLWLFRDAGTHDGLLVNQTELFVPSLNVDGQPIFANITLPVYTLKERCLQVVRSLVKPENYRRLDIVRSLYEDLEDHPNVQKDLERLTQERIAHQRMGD

[2] = target: T1, von Hippel-Lindau disease tumor suppressor/Bromodomain-containing protein 4; test: as §1, with “10” for “0.3”
[3] = target: T1, von Hippel-Lindau disease tumor suppressor/Bromodomain-containing protein 4; test: as §1, with “BRD4/VHL” for “VHL/BRD4”, “human MCF7” for “HEK293”, “residual activity” for “maximal level of degradation”, “300 nM incubated” for “0.3 uM measured every 15 mins”, “Western blot” for “HiBiT”
[4] = target: T1, von Hippel-Lindau disease tumor suppressor/Bromodomain-containing protein 4; test: (§2) PROTAC activity at BRD4/VHL in human MCF7 cells assessed as induction of BRD4 degradation by measuring residual activity at 100 nM incubated for 24 hrs in presence of 100 nM VHL based ligand (2S,4R)-1-((S)-2-(2,3-dihydroxybenzamido)-3,3-dimethylbutanoyl)-4-hydroxy-N-(4-(4-methylthiazol-5-yl)benzyl)pyrrolidine-2-carboxamide by Western blot based Combinatorial Ubiquitination Real-time PROteolysis analysis
[5] = target: T1, von Hippel-Lindau disease tumor suppressor/Bromodomain-containing protein 4; test: as §2, with “at 3 uM” for “at 100 nM”
[6] = target: T1, von Hippel-Lindau disease tumor suppressor/Bromodomain-containing protein 4; test: as §2, with “of 300” for “of 100”
[7] = target: T1, von Hippel-Lindau disease tumor suppressor/Bromodomain-containing protein 4; test: as §2, with “at 30” for “at 100”, “of 3 uM” for “of 100 nM”
[8] = target: T1, von Hippel-Lindau disease tumor suppressor/Bromodomain-containing protein 4; test: as §2, with “at 300” for “at 100”, “of 10 uM” for “of 100 nM”
[9] = target: T1, von Hippel-Lindau disease tumor suppressor/Bromodomain-containing protein 4; test: (§3) PROTAC activity at BRD4/VHL in human MCF7 cells assessed as reduction in BRD4 level incubated for 24 hrs in presence of VHL based ligand ((4S)-6-(4-chlorophenyl)-4-(2-(ethylamino)-2-oxoethyl)-1-methyl4Hbenzo[f][1,2,4]triazolo [4,3-a][1,4]diazepin-8-yl)boronic acid by Western blot based Combinatorial Ubiquitination Real-time PROteolysis analysis
[10] = target: T1, von Hippel-Lindau disease tumor suppressor/Bromodomain-containing protein 4; test: (§4) PROTAC activity at VHL/BRD4 in HEK293 cells assessed as induction of BRD4 degradation by measuring degradation rate at 0.3 uM measured every 15 mins for 24 hrs in presence of BRD4 based ligand ((4S)-6-(4-chlorophenyl)-4-(2-(ethylamino)-2-oxoethyl)-1-methyl4Hbenzo[f][1,2,4]triazolo [4,3-a][1,4]diazepin-8-yl)boronic acid by HiBiT based Combinatorial Ubiquitination Real-time PROteolysis analysis
[11] = target: T1, von Hippel-Lindau disease tumor suppressor/Bromodomain-containing protein 4; test: as §4, with “1” for “0.3”
[12] = target: T1, von Hippel-Lindau disease tumor suppressor/Bromodomain-containing protein 4; test: as §4, with “Tmax” for “degradation rate”, “1” for “0.3”
[13] = target: T1, von Hippel-Lindau disease tumor suppressor/Bromodomain-containing protein 4; test: as §4, with “Tmax” for “degradation rate”, “3” for “0.3”
[14] = target: T1, von Hippel-Lindau disease tumor suppressor/Bromodomain-containing protein 4; test: as §3, with “VHL/BRD4” for “BRD4/VHL”, “induction of” for “reduction in”, “degradation at 10 uM measured at 4” for “level incubated for 24”, “BRD4” for “VHL”
[15] = target: T1, von Hippel-Lindau disease tumor suppressor/Bromodomain-containing protein 4; test: as §3, with “VHL/BRD4” for “BRD4/VHL”, “induction of” for “reduction in”, “degradation at 10 uM” for “level”, “BRD4 ligand” for “VHL”, “based” for “based ligand”
[16] = target: T1, von Hippel-Lindau disease tumor suppressor/Bromodomain-containing protein 4; test: (§5) PROTAC activity at BRD4/VHL in human MCF7 cells assessed as induction of BRD4 degradation by measuring residual activity at 10 uM incubated for 24 hrs in presence of BRD4 based ligand ((4S)-6-(4-chlorophenyl)-4-(2-(ethylamino)-2-oxoethyl)-1-methyl4Hbenzo[f][1,2,4]triazolo [4,3-a][1,4]diazepin-8-yl)boronic acid by Western blot based Combinatorial Ubiquitination Real-time PROteolysis analysis
[17] = target: T1, von Hippel-Lindau disease tumor suppressor/Bromodomain-containing protein 4; test: as §5, with “activity at 30 nM incubated for” for “activity at 10 uM incubated for”, “presence of 100 nM BRD4 based” for “presence of BRD4 based”
[18] = target: T1, von Hippel-Lindau disease tumor suppressor/Bromodomain-containing protein 4; test: as §5, with “activity at 100 nM incubated for” for “activity at 10 uM incubated for”, “presence of 100 nM BRD4 based” for “presence of BRD4 based”
[19] = target: T1, von Hippel-Lindau disease tumor suppressor/Bromodomain-containing protein 4; test: as §5, with “presence of 100 nM BRD4 based” for “presence of BRD4 based”
[20] = target: T1, von Hippel-Lindau disease tumor suppressor/Bromodomain-containing protein 4; test: as §5, with “activity at 100 nM incubated for” for “activity at 10 uM incubated for”, “presence of 300 nM BRD4 based” for “presence of BRD4 based”
[21] = target: T1, von Hippel-Lindau disease tumor suppressor/Bromodomain-containing protein 4; test: as §5, with “presence of 300 nM BRD4 based” for “presence of BRD4 based”
[22] = target: T1, von Hippel-Lindau disease tumor suppressor/Bromodomain-containing protein 4; test: as §5, with “activity at 30 nM incubated for” for “activity at 10 uM incubated for”, “presence of 1 uM BRD4 based” for “presence of BRD4 based”
[23] = target: T1, von Hippel-Lindau disease tumor suppressor/Bromodomain-containing protein 4; test: as §5, with “activity at 300 nM incubated for” for “activity at 10 uM incubated for”, “presence of 1 uM BRD4 based” for “presence of BRD4 based”

Compound: CCNC(=O)C[C@@H]1N=C(c2ccc(Cl)cc2)c2cc(B(O)O)ccc2-n2c(C)nnc21
Emax [1]: 47%
Emax [2]: 96%
Activity [3]: 100%
Activity [4]: 97%
Activity [5]: 51%
Activity [6]: 77%
Activity [7]: 90%
Activity [8]: 40%

Activity [9]: Active
DC50 [9]: 358 nM
Activity [10]: 0.144 h⁻¹
Activity [11]: 0.548 h⁻¹
Tmax [12]: 19.5 h
Tmax [13]: 18 h
Activity [14]: 100%
Activity [15]: Active
Activity [16]: 95%
Activity [17]: 89%
Activity [18]: 97%
Activity [19]: 55%
Activity [20]: 77%
Activity [21]: 48%
Activity [22]: 96%
Activity [23]: 38%
Compound: Cc1ncsc1-c1ccc(CNC(=O)[C@@H]2C[C@@H](O)CN2C(=O)[C@@H](NC(=O)c2cccc(O)c2O)C(C)(C)C)cc1
